Source: US20200297790A1, “HERBAL COMPOSITION FOR PREVENTING OR TREATING BENIGN PROSTATIC HYPERPLASIA DISEASE” (priority 2017, published 2020)

Experiments:
LNCaP cells = test: Inhibition of testosterone-induced proliferation of prostate epithelial cell line (MTT assay); assay type: cell-based, human; settings: 2 μM testosterone alone, 72 hours
Procedure: LNCaP cells, which are the prostate epithelial cells derived from human prostate cancer, were seeded at a density of 1×10^5 cells/well in 24-well plates containing an RPMI medium (Gibco U.S.A) and stabilized overnight. Then, the cells were cultured for 24 hours in a serum-free medium. After removal of the medium, the cells were incubated for 72 hours with 2 μM of testosterone (Tes) alone or in combination with 50, 100, or 200 μg/ml of the composite herbal extract of Preparation Example 1-6 or 4. Thereafter, growth of the cells was evaluated by MTT assay. Cell proliferation data were expressed as percentages of the cell counts relative to that of the Tes-treated group.
LNCaP cells, which are the prostate epithelial cells derived from human prostate cancer, were seeded at a density of 1×10^5 cells/well in 24-well plates containing an RPMI medium (Gibco, U.S.A) and stabilized overnight. […] Thereafter, growth of the cells was evaluated by MTT assay. Cell proliferation data were expressed as percentages of the cell counts relative to that of the Tes-treated group.
LNCaP cells, which are the prostate epithelial cells derived from human prostate cancer, were seeded at a density of 1×10^5 cells/well in 24-well plates containing an RPMI medium (Gibco, U.S.A) and stabilized overnight. […] Thereafter, growth of the cells was evaluated by MTT assay. […]

[1] = system: testosterone-induced benign prostatic hyperplasia rat model; test: Size of acinus in excised prostate tissue (H&E staining) of testosterone-induced benign prostatic hyperplasia rat model; assay type: in vivo; settings: extracts 300 mg/kg or finasteride 10 mg/kg orally, 30 days
Procedure: For the control, the same amount of cotton seed oil was subcutaneously injected. […] For the negative control, oral administration of distilled water alone was carried out. From the starting day of the test, the rats were weighed five times in total at regular intervals of one week. On the next day after the final administration and treatment, the rats were sacrificed with carbon dioxide gas. The prostate glands were excised and weighed. % Inhibition of prostate enlargement was expressed according to the following mathematical formula on the basis of the weight measurements. […] Slides of the stained tissues were observed and photographed with an optical microscope. From the images, sizes of the acini in the prostate glands were measured. The reduction in the size of acinus of each experimental group is expressed as a percentage relative to the size of acinus of the normal group.

[2] = Body weight change in testosterone-induced benign prostatic hyperplasia rat model; assay type: in vivo; settings: weighed weekly, five times; extracts 300 mg/kg or finasteride 10 mg/kg orally, 30 days; FIG. 4
Description: (§1) After being acclimated for one week or longer, male SD rats 9 weeks old (weighing 350 g or less) were divided on the basis of weight into (1) a normal group, (2) a benign prostatic hyperplasia-induced and distilled water-administered group (negative control), (3) benign prostatic hyperplasia-induced and composite herbal extract-administered group ([…]), (4) benign prostatic hyperplasia-induced and single Semen Cuscutae herbal extract-administered group (Comparative Example 1-1), (5) benign prostatic hyperplasia-induced and single Semen nelumbinis herbal extract-administered group (Comparative Example 1-2), (6) benign prostatic hyperplasia-induced and single Taraxaci Herba herbal extract-administered group (Comparative Example 1-3), and (7) benign prostatic hyperplasia-induced and finasteride-administered group (positive control). In order to induce benign prostatic hyperplasia, testosterone (dissolved in cotton seed oil) was subcutaneously injected at a dose of 3 mg/kg once/three days for a total of 10 times. For the control, the same amount of cotton seed oil was subcutaneously injected. The composite herbal extract of Preparation Example 1-6 and the single herbal extracts of Comparative Example 1 were each orally administered at a dose of 300 mg/kg once a day for 30 days. […]

[3] = system: testosterone-induced benign prostatic hyperplasia rat model; test: Inhibition of prostate enlargement (prostate weight) in testosterone-induced benign prostatic hyperplasia rat model; assay type: in vivo; settings: SD rats, testosterone 3 mg/kg s.c., extracts 300 mg/kg or finasteride 10 mg/kg orally once a day for 30 days
Description: as §1

| SMILES | growth of prostate epithelial cells when treated with testosterone (LNCaP cells) | Reductive effect on size of acinus (%) [1] [%] | Size of acinus (%) ([1]; percentage relative to normal group) | body weight difference among testosterone-treated groups [2] | Prostate weight/body weight [3] [g/kg] | % Inhibition of prostate enlargement ([3]; vs negative control) [%] |
| --- | --- | --- | --- | --- | --- | --- |
| C[C@]12CC[C@H]3[C@@H](CCC4=CC(=O)CC[C@@]43C)[C@@H]1CC[C@@H]2O [testosterone] | about 62.5% |  |  |  |  |  |
| CC(C)(C)NC(=O)[C@H]1CC[C@H]2[C@@H]3CC[C@H]4NC(=O)C=C[C@]4(C)[C@H]3CC[C@]12C [Finasteride] |  | 42 | 279 ± 10 | significant differences in body weight were not observed | 1.31 ± 0.10 | 43 |
